Assay results taken from ChEMBL document CHEMBL1129482, “Synthesis and anti-herpes virus activity of 2'-deoxy-4'-thiopyrimidine nucleosides” (J Med Chem, 1996).

Key:
Human betaherpesvirus 5 = test: Inhibitory activity against human cytomegalovirus (HCMV) strain AD169 in MRC-5 cells.; assay type: functional, organism-based; conditions: Human betaherpesvirus 5, MRC5
Human alphaherpesvirus 3 = test: Inhibitory activity against varicella zoster virus (VZV) strain G31 in MRC-5 cells.; assay type: functional, organism-based; conditions: Human alphaherpesvirus 3, MRC5
[1] = Inhibitory activity against herpes simplex virus type 2 (HSV 2) strain 186 in Vero cells.; assay type: functional, cell-based
Vero [2] = test: Inhibitory dose required to reduce the growth of vero cells by 50% over a 4 day period.; assay type: functional, Chlorocebus sabaeus
Human alphaherpesvirus 1 = test: Inhibitory activity against herpes simplex virus type 1 (HSV-1) strain SC16 in Vero cells.; assay type: functional, organism-based; conditions: Human alphaherpesvirus 1, Vero
Vero [3] = test: Inhibitory activity against herpes simplex virus type 1 (HSV 1) strain SC16 was determined in Vero cells; Range is 0.17-0.5 uM; assay type: functional, cell-based; conditions: Chlorocebus sabaeus
Vero [4] = test: Inhibitory activity against herpes simplex virus type 2 (HSV 2) strain 186 was determined in Vero cells; Range is 2-5 uM; assay type: functional, cell-based; conditions: Chlorocebus sabaeus
Vero [5] = test: Inhibitory dose required to reduce the growth of Vero cells by 50% over a 4 day period; assay type: functional, Chlorocebus sabaeus
MRC5 = test: Inhibitory activity against varicella zoster virus (VZV) strain G31 was determined in MRC-5 cells; Toxicity at 40 uM; assay type: functional, cell-based, Homo sapiens

Structure (SMILES) | IC50 (Human betaherpesvirus 5) [µM] | IC50 (Human alphaherpesvirus 3) [µM] | IC50 [1] [µM] | CCID50 (Vero [2]) [µM] | IC50 (Human alphaherpesvirus 1) [µM] | IC50 (Vero [3]) [nM] | IC50 (Vero [4]) [nM] | CCID50 (Vero [5]) [µM] | IC50 (MRC5)
O=c1[nH]c(=O)n([C@H]2CC(O)C(CO)S2)cc1C=C(F)F (stereo partly specified) | > 100 | > 10 | > 100 | >500 |  |  |  |  | 
N#Cc1cn([C@H]2CC(O)C(CO)S2)c(=O)[nH]c1=O (stereo partly specified) | > 100 | > 100 | > 100 | >500 | > 100 |  |  |  | 
Nc1nc2c(ncn2COCCO)c(=O)[nH]1 [ACYCLOVIR] | > 85 |  | 1.7 | >500 | 1.8 |  |  |  | 
O=c1[nH]c(=O)n([C@H]2CC(O)C(CO)S2)cc1Br (stereo partly specified) | 0.44 | > 40 | > 100 | >500 | 5.3 |  |  |  | 
CC(C)c1cn([C@H]2CC(O)C(CO)S2)c(=O)[nH]c1=O (stereo partly specified) | > 100 | 4.1 | > 100 | >500 | 2.2 |  |  |  | 
O=c1[nH]c(=O)n([C@H]2CC(O)C(CO)S2)cc1/C=C/Cl (stereo partly specified) | > 100 | > 10 | > 100 | >500 | 0.5 |  |  |  | 
O=c1[nH]c(=O)n([C@H]2CC(O)C(CO)S2)cc1I (stereo partly specified) | 4 | 3.5 | 10 | >100 | 0.8 |  |  |  | 
O=c1[nH]c(=O)n(C2CC(O)C(CO)S2)cc1CCCl (stereo unspecified) |  | 0.3 | > 100 | >200 | 0.15 |  |  |  | 
CCc1cn([C@@H]2CC(O)C(CO)S2)c(=O)[nH]c1=O (stereo partly specified) | > 100 | > 100 | > 100 | >100 |  |  |  |  | 
CSCc1cn(C2CC(O)C(CO)S2)c(=O)[nH]c1=O (stereo unspecified) | > 100 |  | > 100 | >500 |  |  |  |  | 
C=Cc1cn([C@H]2CC(O)C(CO)S2)c(=O)[nH]c1=O (stereo partly specified) | 93 | 1.1 | > 100 | >500 | 1.4 |  |  |  | 
O=c1[nH]c(=O)n([C@H]2CC(O)C(CO)S2)cc1Cl (stereo partly specified) | 0.2 | > 40 | > 100 | 59 | > 100 |  |  |  | 
CC(O)c1cn(C2CC(O)C(CO)S2)c(=O)[nH]c1=O (stereo unspecified) | > 100 | 12 | > 100 | >500 | 40 |  |  |  | 
O=c1[nH]c(=O)n(C2CC(O)C(CO)S2)cc1F (stereo unspecified) | > 100 | > 100 | > 10 | 92 | > 10 |  |  |  | 
O=c1[nH]c(=O)n([C@H]2CC(O)C(CO)S2)cc1C(F)(F)F (stereo partly specified) | > 10 |  | 15 | 139 | < 1.6 |  |  |  | 
O=c1[nH]c(=O)n([C@H]2C[C@H](O)[C@@H](CO)O2)cc1/C=C/Br [BRIVUDINE] | > 100 | < 1 | 10 | >250 | 1.4 |  |  |  | 
COCc1cn(C2CC(O)C(CO)S2)c(=O)[nH]c1=O (stereo unspecified) | > 100 | > 10 | > 10 |  | > 10 |  |  |  | 
O=c1[nH]c(=O)n([C@H]2CC(O)C(CO)S2)cc1CCF (stereo partly specified) | > 100 | 0.12 | > 100 | >500 | 0.7 |  |  |  | 
COC(C)c1cn(C2CC(O)C(CO)S2)c(=O)[nH]c1=O (stereo unspecified) | > 100 | > 40 | > 100 | >500 | > 100 |  |  |  | 
CC(C)(C)c1cn([C@H]2CC(O)C(CO)S2)c(=O)[nH]c1=O (stereo partly specified) | > 100 |  | > 100 | 475 |  |  |  |  | 

Structure (SMILES) | IC50 (Human betaherpesvirus 5) [µM] | IC50 (Human alphaherpesvirus 3) [µM] | IC50 [1] [µM] | CCID50 (Vero [2]) [µM] | IC50 (Human alphaherpesvirus 1) [µM] | IC50 (Vero [3]) [nM] | IC50 (Vero [4]) [nM] | CCID50 (Vero [5]) [µM] | IC50 (MRC5)
O=c1[nH]c(=O)n([C@@H]2CC(O)C(CO)S2)cc1[N+](=O)[O-] (stereo partly specified) |  | > 100 | > 100 |  | > 100 |  |  |  | 
C#CCc1cn([C@H]2CC(O)C(CO)S2)c(=O)[nH]c1=O (stereo partly specified) | 100 | 1.4 | > 100 | 492 | > 100 |  |  |  | 
Nc1nc(O)c2ncn(CCC(CO)CO)c2n1 [PENCICLOVIR] | > 100 | 78.7 | 12.8 |  | 3.9 |  |  |  | 
COCCc1cn([C@H]2CC(O)C(CO)S2)c(=O)[nH]c1=O (stereo partly specified) | > 100 | > 10 | > 100 |  |  |  |  |  | 
O=c1[nH]c(=O)n([C@H]2CC(O)C(CO)S2)cc1CC(F)(F)F (stereo partly specified) | > 100 | > 40 | > 100 | >500 |  |  |  |  | 
CCCc1cn([C@H]2CC(O)C(CO)S2)c(=O)[nH]c1=O (stereo partly specified) | > 100 | 3 | > 10 | >100 | 6.8 |  |  |  | 
C/C=C/c1cn([C@H]2CC(O)C(CO)S2)c(=O)[nH]c1=O (stereo partly specified) | > 100 | 0.46 | > 20 | >100 | > 2 |  |  |  | 
O=c1[nH]c(=O)n([C@@H]2CC(O)C(CO)S2)cc1C(F)(F)F (stereo partly specified) | > 100 |  | > 100 | >500 |  |  |  |  | 
O=C1NC(=O)N(C2CC(O)C(CO)S2)C2CCCC12 (stereo unspecified) | > 100 | > 40 | > 100 | >500 |  |  |  |  | 
CCC(C)c1cn(C2CC(O)C(CO)S2)c(=O)[nH]c1=O (stereo unspecified) | > 100 |  | > 100 | >500 |  |  |  |  | 
CC(=O)c1cn(C2CC(O)C(CO)S2)c(=O)[nH]c1=O (stereo unspecified) | > 100 | > 10 | > 10 | 351 | > 10 |  |  |  | 
O=c1[nH]c(=O)n([C@H]2CC(O)C(CO)S2)cc1[N+](=O)[O-] (stereo partly specified) |  | 13 | 27 | 476 | 18 |  |  |  | 
CCc1cn([C@H]2CC(O)C(CO)S2)c(=O)[nH]c1=O (stereo partly specified) | 138 | 0.99 |  | >100 |  | 170 | 2000 |  | 
O=c1[nH]c(=O)n([C@H]2CC(O)C(CO)S2)cc1C1CC1 (stereo partly specified) | > 100 | 0.5 | > 100 | >500 | 1.6 |  |  |  | 
O=c1[nH]c(=O)n([C@H]2CC(O)C(CO)S2)cc1C(F)=C(Cl)Cl (stereo partly specified) | > 100 | > 100 |  | >500 | > 50 |  |  |  | 
C#Cc1cn([C@H]2CC(O)C(CO)S2)c(=O)[nH]c1=O (stereo partly specified) | 9.3 | 5.5 | > 10 | 33 | 6.6 |  |  |  | 
C=C(C)c1cn([C@H]2CC(O)C(CO)S2)c(=O)[nH]c1=O (stereo partly specified) | > 100 | < 40 | > 100 |  | 3.4 |  |  | >500 | 
O=c1[nH]c(=O)n([C@H]2CC(O)C(CO)S2)cc1C12CC3CC(CC(C3)C1)C2 (stereo partly specified) | > 100 |  | > 100 | >125 | > 100 |  |  |  | Toxic
COc1cn(C2CC(O)C(CO)S2)c(=O)[nH]c1=O (stereo unspecified) | > 100 | > 100 | > 100 |  | > 100 |  |  |  | 
